{"source": "patent US8431593B2", "about": "“Heteroaryl amide derivatives” (H. Lundbeck A/S, priority 2006, dated 2013)"}
{"biological_target": "T1, P2X7 receptor (Homo sapiens, UniProt Q99572)", "T1 construct": "host or cells: SH-SY5Y", "T1 sequence (Q99572 1-595)": "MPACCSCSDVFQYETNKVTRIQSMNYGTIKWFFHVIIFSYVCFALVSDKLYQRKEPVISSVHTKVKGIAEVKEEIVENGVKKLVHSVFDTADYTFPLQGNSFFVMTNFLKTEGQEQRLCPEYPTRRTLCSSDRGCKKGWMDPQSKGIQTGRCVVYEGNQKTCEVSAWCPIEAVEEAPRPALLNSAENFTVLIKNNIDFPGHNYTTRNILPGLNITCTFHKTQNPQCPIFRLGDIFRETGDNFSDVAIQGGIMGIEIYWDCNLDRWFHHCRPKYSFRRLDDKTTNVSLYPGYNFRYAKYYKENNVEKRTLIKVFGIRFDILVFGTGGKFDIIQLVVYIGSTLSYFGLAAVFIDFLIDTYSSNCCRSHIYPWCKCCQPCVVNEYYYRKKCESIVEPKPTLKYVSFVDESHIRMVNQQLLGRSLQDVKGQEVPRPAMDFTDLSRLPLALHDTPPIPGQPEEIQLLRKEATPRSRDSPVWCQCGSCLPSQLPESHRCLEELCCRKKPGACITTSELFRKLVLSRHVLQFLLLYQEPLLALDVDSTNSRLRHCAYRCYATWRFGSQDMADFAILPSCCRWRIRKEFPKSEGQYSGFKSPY", "assay": "P2X7 calcium mobilization assay, high throughput, antagonist activity (Example 4A)", "format": "cell-based", "settings": "not given", "outline": "(§1)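 Cells plated 100,000/well the day before; after 1 h dye loading and one rinse, cells were preincubated 1 h at room temperature with test compound. Calcium mobilization then read on FLIPR^TETRA; maximum RFU corrected by subtracting mean no-agonist response and referenced to mean agonist-control maximum.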", "units": {"IC50": "µM"}}
{"smiles": "COCC1CCN(C(=O)c2cn3c(C(=O)NCC45CC6CC(CC(C6)C4)C5)cccc3n2)CC1", "note": "[Compound 87, N-(adamantan-1-ylmethyl)-2-{[4-(methoxy-methyl)piperidin-1-yl]carbonyl}imi-dazo[1,2-a]pyridine-5-carboxamide]", "IC50": "< 2"}
{"smiles": "CC(C)(C)OC(=O)N[C@@H]1CCN(Cc2cn3c(C(=O)NCC45CC6CC(CC(C6)C4)C5)cccc3n2)C1", "note": "[Compound 62, tert-butyl [(3R)-1-({5-[(adamantan-1-ylmethyl)carbamoyl]imi-dazo[1,2-a]pyridin-2-yl}methyl)pyrrolidin-3-yl]carbamate]", "IC50": "< 2"}
{"biological_target": "T1, P2X7 receptor", "assay": "P2X7 calcium mobilization assay, high throughput, antagonist activity (Example 4A)", "format": "cell-based", "settings": "50% decrease in the fluorescence response of cells exposed to 80 μM 2′(3′)-O-(4-benzoyl-benzoyl)adenosine 5′-triphosphate; Example 4A; read-out: IC50", "outline": "as §1", "units": {"IC50": "µM"}}
{"smiles": "CCOC(=O)Cc1cn2c(C(=O)NCC(CC(C)C)c3cccnc3)cccc2n1", "note": "(stereo not shown) [Compound 533, ethyl {5-[(4-methyl-2-pyridin-3-ylpentyl)carbamoyl]imidazo[1,2-a]pyridin-2-yl}acetate]", "IC50": "< 2"}
{"smiles": "O=C(CC12CC3CC(CC(C3)C1)C2)Nc1cccc2nc(C(=O)NC3(CO)CCCC3)cn12", "note": "[Compound 441, 5-[(adamantan-1-ylacetyl)amino]-N-[1-(hydroxymethyl)cyclopentyl]imidazo[1,2-a]pyridine-2-carboxamide]", "IC50": "< 2"}
{"smiles": "CC1(C)[C@H]2CC[C@@H](CNC(=O)c3cccc4nc(C(=O)N5CCCCC5)cn34)[C@@H]1C2", "note": "[Compound 465, N-{[(1S,2R,5S)-6,6-dimethylbicyclo[3.1.1]hept-2-yl]methyl}-2-(piperidin-1-ylcarbonyl)imidazo[1,2-a]pyridine-5-carboxamide]", "IC50": "< 2"}
{"smiles": "CC(C)CNC(=O)c1cn2c(C(=O)NC[C@@H]3CC[C@H]4C[C@@H]3C4(C)C)cccc2n1", "note": "[Compound 496, 5-N-{[(1S,2R,5S)-6,6-dimethylbicyclo[3.1.1]hept-2-yl]methyl}-2-N-isobutylimidazo[1,2-a]pyridine-2,5-dicarboxamide]", "IC50": "< 2"}
{"biological_target": "T1, P2X7 receptor", "assay": "P2X7 calcium mobilization assay, high throughput, antagonist activity (Example 4A)", "format": "cell-based", "settings": "50% decrease in the fluorescence response of cells exposed to 80 μM of 2′(3′)-O-(4-benzoyl-benzoyl)adenosine 5′-triphosphate; Example 4A; read-out: IC50", "outline": "as §1", "units": {"IC50": "µM"}}
{"smiles": "NCC1CCN(C(=O)c2cn3c(C(=O)NCC45CC6CC(CC(C6)C4)C5)cccc3n2)CC1", "note": "[Compound 630, N-(adamantan-1-ylmethyl)-2-{[4-(aminomethyl)piperidin-1-yl]carbonyl}imidazo[1,2-a]pyridine-5-carboxamide]", "IC50": "< 2"}
{"biological_target": "T1, P2X7 receptor", "assay": "P2X7 calcium mobilization assay, high throughput, antagonist activity (Example 4A)", "format": "cell-based", "settings": "50% decrease in the fluorescence response of cells exposed to 80 μM of 2′(3′)-O-(4-benzoyl-benzoyl)adenosine 5′-triphosphate; determined as in Example 4A; read-out: IC50", "outline": "as §1", "units": {"IC50": "µM"}}
{"smiles": "CCOC(=O)Cc1nnn(Cc2cn3c(C(=O)NCC45CC6CC(CC(C6)C4)C5)cccc3n2)n1", "note": "[Compound 901, ethyl [2-({5-[(adamantan-1-ylmethyl)carbamoyl]imidazo[1,2-a]pyridin-2-yl}methyl)-2H-tetrazol-5-yl]acetate]", "IC50": "< 2"}
{"smiles": "O=C(Cc1cn2c(C(=O)NCC3(c4ccc(C(F)(F)F)cc4)CCCCC3)cccc2n1)NC1CCCC1", "note": "[Compound 877, 2-[2-(cyclopentylamino)-2-oxoethyl]-N-({1-[4-(trifluoromethyl)phenyl]cyclohexyl}methyl) imidazo[1,2-a] pyridine-5-carboxamide]", "IC50": "< 2"}
{"smiles": "O=C(Cc1cn2c(C(=O)NCC3(c4ccc(Cl)cc4)CCCCC3)cccc2n1)NC1CCCC1", "note": "[Compound 866, N-{[1-(4-chlorophenyl)cyclohexyl]methyl}-2-[2-(cyclopentylamino)-2-oxoethyl]imidazo [1,2-a]pyridine-5-carboxamide]", "IC50": "< 2"}
{"smiles": "O=C(NCC1(c2ccc(Cl)cc2)CCCCC1)c1cccc2nc(C(CC3CC3)C(=O)O)cn12", "note": "(stereo not shown) [Compound 1010, 2-[5-({[1-(4-chlorophenyl)cyclohexyl]methyl}carbamoyl)imidazo[1,2-a]pyridin-2-yl]-3-cyclopropylpropanoic acid]", "IC50": "< 2"}
{"smiles": "CNC(=O)c1ccc(NC(=O)Cc2cn3c(C(=O)NCC4CCCCCC4)cccc3n2)cc1", "note": "[Compound 957, N-(cycloheptylmethyl)-2-(2-{[4-(methylcarbamoyl)phenyl]amino}-2-oxoethyl) imidazo[1,2-a] pyridine-5-carboxamide]", "IC50": "< 2"}
{"biological_target": "T1, P2X7 receptor", "assay": "P2X7 calcium mobilization assay, high throughput, antagonist activity (Example 4A)", "format": "cell-based", "settings": "P2X7 calcium mobilization, Example 4A; 50% decrease in the fluorescence response of cells exposed to 80 μM of (2′(3′)-O-(4-benzoyl-benzoyl)adenosine 5′-triphosephate); read-out: IC50", "outline": "as §1", "units": {"IC50": "µM"}}
{"smiles": "O=C(NCC1(c2ccc(C(F)(F)F)cc2)CCCCC1)c1cccc2nc(CN3CCCC3)cn12", "note": "[Compound 1044, 2-(pyrrolidin-1-ylmethyl)-N-({1-[4-(trifluoromethyl)phenyl]cyclohexyl}methyl) imidazo[1,2-a] pyridine-5-carboxamide]", "IC50": "< 2"}
{"biological_target": "T1, P2X7 receptor", "assay": "P2X7 calcium mobilization assay, high throughput, antagonist activity (Example 4A)", "format": "cell-based", "settings": "SH-SY5Y cells; 50% decrease in fluorescence response to 80 μM BzATP; read-out: IC50", "outline": "as §1", "units": {"IC50": "µM"}}
{"smiles": "CC(NC(=O)c1cn2c(C(=O)NCC34CC5CC(CC(C5)C3)C4)cccc2n1)C(N)=O", "note": "(stereo not shown) [Compound 79, 5-N-(adamantan-1-ylmethyl)--(2-amino-1-methyl-2-oxoethyl)imidazo[1,2-a]pyridine-2,5-dicarboxamide]", "IC50": "< 2"}
{"smiles": "CS(=O)(=O)N1CCN(C(=O)c2cn3c(C(=O)NCC45CC6CC(CC(C6)C4)C5)cccc3n2)CC1", "note": "[Compound 97, N-(adamantan-1-ylmethyl)-2-{[4-(methyl-sulfonyl)piperazin-1-yl]carbonyl}imidazo[1,2-a]pyridine-5-carboxamide]", "IC50": "< 2"}
{"smiles": "C[C@H](O)CNC(=O)c1cn2c(C(=O)NCC34CC5CC(CC(C5)C3)C4)cccc2n1", "note": "[Compound 82, 5-N-(adamantan-1-ylmethyl)--[(2S)-2-hydroxy-propyl]imidazo[1,2-a]pyridine-2,5-dicarboxamide]", "IC50": "< 2"}
{"smiles": "O=C(NCC12CC3CC(CC(C3)C1)C2)c1cccc2nc(CC(=O)N3CCOCC3)cn12", "note": "[Compound 182, N-(adamantan-1-ylmethyl)-2-(2-morpholin-4-yl-2-oxoethyl)imidazo[1,2-a]pyridine-5-carboxamide]", "IC50": "< 2"}
{"smiles": "CN1CCC(N(C)C(=O)c2cn3c(C(=O)NCC45CC6CC(CC(C6)C4)C5)cccc3n2)C1", "note": "(stereo not shown) [Compound 92, 5-N-(adamantan-1-ylmethyl)--methyl--(1-methylpyrrolidin-3-yl)imidazo[1,2-a]pyridine-2,5-dicarboxamide]", "IC50": "< 2"}
{"smiles": "COC1CCCN(C(=O)Cc2cn3c(C(=O)NCC45CC6CC(CC(C6)C4)C5)cccc3n2)C1", "note": "(stereo not shown) [Compound 47, N-(adamantan-1-ylmethyl)-2-[2-(3-methoxypiperidin-1-yl)-2-oxoethyl]imidazo[1,2-a]pyridine-5-carboxamide]", "IC50": "< 2"}
{"smiles": "O=C(NCC12CC3CC(CC(C3)C1)C2)c1cccc2nc(CC(=O)N3CCN(C4CCC4)CC3)cn12", "note": "[Compound 179, N-(adamantan-1-ylmethyl)-2-[2-(4-cyclobutylpiperazin-1-yl)-2-oxoethyl]imidazo[1,2-a]pyridine-5-carboxamide]", "IC50": "< 2"}
{"biological_target": "T1, P2X7 receptor", "assay": "P2X7 calcium mobilization assay, high throughput, antagonist activity (Example 4A)", "format": "cell-based", "settings": "fluorescence response of cells exposed to 80 μM 2′(3′)-O-(4-benzoyl-benzoyl)adenosine 5′-triphosphate; Example 4A; read-out: IC50", "outline": "as §1", "units": {"IC50": "µM"}}
{"smiles": "COCCC1CCN(C(=O)c2cn3c(NC(=O)CC45CC6CC(CC(C6)C4)C5)cccc3n2)CC1", "note": "[Compound 389, 2-adamantan-1-yl-N-(2-{[4-(2-methoxyethyl)piperidin-1-yl]carbonyl}imidazo[1,2-a]pyridin-5-yl)acetamide]", "IC50": "< 2"}
{"smiles": "O=C(NCC12CC3CC(CC(C3)C1)C2)c1cccc2nc(CSc3nnc[nH]3)cn12", "note": "[Compound 293, N-(adamantan-1-ylmethyl)-2-[(4H-1,2,4-triazol-3-ylthio)methyl]imidazo [1,2-a]pyridine-5-carboxamide]", "IC50": "< 2"}
{"smiles": "CN(CCO)C(=O)c1cn2c(NC(=O)CC34CC5CC(CC(C5)C3)C4)cccc2n1", "note": "[Compound 405, 5-[(adamantan-1-ylacetyl)amino]-N-(2-hydroxyethyl)-N-methylimidazo[1,2-a]pyridine-2-carboxamide]", "IC50": "< 2"}
{"smiles": "CC1(C)[C@H]2CC[C@@H](CNC(=O)c3cccc4nc(C(=O)N5CCCC(CN)C5)cn34)[C@@H]1C2", "note": "(stereo partly drawn) [Compound 322, 2-{[3-(aminomethyl)piperidin-1-yl]carbonyl}-N-{[(1S,2R,5S)-6,6-dimethylbicyclo[3.1.1]hept-2-yl]methyl}imidazo[1,2-a]pyridine-5-carboxamide]", "IC50": "< 2"}
{"smiles": "CC1(C)[C@H]2CC[C@@H](CNC(=O)c3cccc4nc(C(=O)N5C[C@@H]6CC5CN6)cn34)[C@@H]1C2", "note": "(stereo in doubt) [Compound 303, 2-[(1S,4S)-2,5-diazabicyclo[2.2.1]hept-2-ylcarbonyl]-N-{[(1S,2R,5S)-6,6-dimethylbicyclo[3.1.1]hept-2-yl]methyl}imidazo[1,2-a]pyridine-5-carboxamide]", "IC50": "< 2"}
{"smiles": "COC[C@@H]1CCCN1C(=O)c1cn2c(C(=O)NCC(CC(C)C)c3ccccc3)cccc2n1", "note": "(stereo partly drawn) [Compound 257, 2-{[(2S)-2-(methoxymethyl)pyrrolidin-1-yl]carbonyl)-N-(4-methyl-2-phenylpentyl)imidazo [1,2-a]pyridine-5-carboxamide]", "IC50": "< 2"}
{"smiles": "CCOC(=O)Cc1cn2c(C(=O)NC(C)C34CC5CC(CC(C5)C3)C4)cccc2n1", "note": "(stereo not shown) [Compound 281, ethyl {5-[(1-adamantan-1-ylethyl)carbamoyl]imidazo[1,2-a]pyridin-2-yl}acetate]", "IC50": "< 2"}
{"smiles": "CC(C)N(CCO)C(=O)c1cn2c(NC(=O)CC34CC5CC(CC(C5)C3)C4)cccc2n1", "note": "[Compound 413, 5-[(adamantan-1-ylacetyl)amino]-N-(2-hydroxyethyl)-N-isopropylimidazo[1,2-a]pyridine-2-carboxamide]", "IC50": "< 2"}
